One assay has as its target ALK1 (Homo sapiens, UniProt P37023). Put plainly: TR-FRET enzymatic ALK kinase assay, ALK1.
Another assay concerns the target T1, ALK4 (Homo sapiens, UniProt P36896).
T1 sequence (P36896 24-505): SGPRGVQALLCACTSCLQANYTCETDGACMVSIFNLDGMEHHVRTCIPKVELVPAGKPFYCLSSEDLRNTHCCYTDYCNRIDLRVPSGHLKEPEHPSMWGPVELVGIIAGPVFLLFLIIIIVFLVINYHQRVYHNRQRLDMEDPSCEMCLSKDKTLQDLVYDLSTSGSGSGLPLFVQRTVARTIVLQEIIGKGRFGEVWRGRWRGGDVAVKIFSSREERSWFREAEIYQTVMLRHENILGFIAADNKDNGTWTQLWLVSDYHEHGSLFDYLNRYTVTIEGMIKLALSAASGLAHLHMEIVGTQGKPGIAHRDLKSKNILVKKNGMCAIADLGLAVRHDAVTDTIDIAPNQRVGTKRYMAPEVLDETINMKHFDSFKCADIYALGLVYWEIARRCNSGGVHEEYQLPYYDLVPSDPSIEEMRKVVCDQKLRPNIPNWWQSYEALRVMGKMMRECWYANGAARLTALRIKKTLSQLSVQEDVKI
Put plainly: TR-FRET enzymatic ALK kinase assay, ALK4. (Time-resolved FRET reads energy transfer from a long-lived donor to a nearby acceptor.)

The target in another assay is ALK6 (Homo sapiens, UniProt O00238). Put plainly: TR-FRET enzymatic ALK kinase assay, ALK6.
In assay [1] the target is T2, ALK2 (Mus musculus, UniProt P37172).
T2 construct: The C2C12 cell line was selected for the measurement of ALK2 activity using BMP6 as the agonist; host or cells: C2C12
T2 sequence (P37172 21-509): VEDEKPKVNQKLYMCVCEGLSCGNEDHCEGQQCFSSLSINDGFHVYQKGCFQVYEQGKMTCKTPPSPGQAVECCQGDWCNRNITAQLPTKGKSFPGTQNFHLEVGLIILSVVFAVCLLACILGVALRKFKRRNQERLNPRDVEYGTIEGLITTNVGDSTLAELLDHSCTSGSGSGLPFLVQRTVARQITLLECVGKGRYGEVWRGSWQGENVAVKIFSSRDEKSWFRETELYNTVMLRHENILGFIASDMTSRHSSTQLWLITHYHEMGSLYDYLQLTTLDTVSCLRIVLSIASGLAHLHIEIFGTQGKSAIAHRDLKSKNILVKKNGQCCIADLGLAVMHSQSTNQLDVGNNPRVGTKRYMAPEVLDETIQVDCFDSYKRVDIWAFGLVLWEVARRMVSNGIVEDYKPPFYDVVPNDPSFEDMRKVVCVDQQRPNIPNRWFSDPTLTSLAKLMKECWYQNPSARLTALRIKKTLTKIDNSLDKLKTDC
Briefly: HTRF pSMAD1 cell-based ALK2 assay (C2C12 cells, BMP6 as agonist). The essentials: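 Cells pre-starved, plated in 0.1% FBS medium for 4 h, compound added for 30 min, then stimulated 30 min with BMP9 (BAOEC) or BMP6 (C2C12). Phospho-SMAD1 measured by HTRF after overnight room-temperature detection incubation.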

The target of assay [2] is T3, ALK2 (Homo sapiens, UniProt Q04771).
T3 sequence (Q04771 21-509): T2 sequence (P37172 21-509) with V1M, Q10P, I121L, E162D, S310P
Briefly: TR-FRET enzymatic ALK kinase assay, ALK2.

The target in another assay is ALK3 (Homo sapiens, UniProt P36894). Briefly: TR-FRET enzymatic ALK kinase assay, ALK3.
The next assay concerns the target T4, ALK5 (Homo sapiens, UniProt P36897).
T4 sequence (P36897 34-503): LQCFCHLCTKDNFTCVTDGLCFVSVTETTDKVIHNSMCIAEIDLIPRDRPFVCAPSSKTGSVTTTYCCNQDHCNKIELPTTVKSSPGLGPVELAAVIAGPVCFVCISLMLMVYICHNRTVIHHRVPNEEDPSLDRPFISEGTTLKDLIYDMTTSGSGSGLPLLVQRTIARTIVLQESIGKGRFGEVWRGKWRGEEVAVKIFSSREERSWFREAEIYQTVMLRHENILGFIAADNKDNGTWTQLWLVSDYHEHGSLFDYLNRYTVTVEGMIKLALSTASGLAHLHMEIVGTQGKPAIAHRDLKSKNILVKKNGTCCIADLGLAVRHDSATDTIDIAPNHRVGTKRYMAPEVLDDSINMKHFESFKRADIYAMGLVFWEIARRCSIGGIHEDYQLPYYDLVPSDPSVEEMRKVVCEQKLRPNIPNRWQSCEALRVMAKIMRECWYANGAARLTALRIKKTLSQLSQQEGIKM
Briefly: TR-FRET enzymatic ALK kinase assay, ALK5.

Where [3] appears, read: cell-based assay, BMP6, read-out: Cell IC50 BMP6.

Numbering of substitutions follows the chain as printed. Read-outs that look alike come from different tables or passages of the source.

Drawing on patent US10513521B2, “Compositions and methods for inhibiting BMP” (The Brigham and Women's Hospital, Inc., priority 2014, dated 2019), this text covers IC50 for eleven compounds.

Sequence of ALK1 (P37023 22-503): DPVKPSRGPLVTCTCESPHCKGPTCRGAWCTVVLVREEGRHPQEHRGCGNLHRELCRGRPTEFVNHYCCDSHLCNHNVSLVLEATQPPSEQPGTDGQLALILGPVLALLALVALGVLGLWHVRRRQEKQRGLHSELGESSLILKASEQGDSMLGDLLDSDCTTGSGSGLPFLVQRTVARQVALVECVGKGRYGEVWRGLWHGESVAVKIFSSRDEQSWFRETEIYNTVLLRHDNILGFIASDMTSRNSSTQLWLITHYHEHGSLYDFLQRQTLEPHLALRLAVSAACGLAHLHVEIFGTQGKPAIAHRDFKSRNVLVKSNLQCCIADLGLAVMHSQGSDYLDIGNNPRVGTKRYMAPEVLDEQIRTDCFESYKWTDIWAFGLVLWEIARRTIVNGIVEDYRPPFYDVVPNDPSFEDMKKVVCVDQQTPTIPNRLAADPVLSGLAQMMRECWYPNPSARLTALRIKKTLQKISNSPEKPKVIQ
Sequence of ALK3 (P36894 24-532): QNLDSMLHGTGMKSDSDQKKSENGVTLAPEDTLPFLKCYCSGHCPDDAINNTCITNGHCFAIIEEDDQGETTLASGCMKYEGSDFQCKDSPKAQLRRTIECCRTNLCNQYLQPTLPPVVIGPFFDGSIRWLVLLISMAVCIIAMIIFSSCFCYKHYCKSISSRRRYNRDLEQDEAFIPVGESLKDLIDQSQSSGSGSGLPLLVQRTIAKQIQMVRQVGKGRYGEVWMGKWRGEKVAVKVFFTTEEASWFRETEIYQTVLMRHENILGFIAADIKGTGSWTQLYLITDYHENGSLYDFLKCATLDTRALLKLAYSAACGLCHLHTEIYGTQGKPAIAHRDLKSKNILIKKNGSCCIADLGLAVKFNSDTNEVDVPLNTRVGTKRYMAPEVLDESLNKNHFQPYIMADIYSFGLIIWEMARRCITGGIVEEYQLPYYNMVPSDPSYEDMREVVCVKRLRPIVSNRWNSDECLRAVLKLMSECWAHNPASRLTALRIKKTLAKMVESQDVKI
Sequence of ALK6 (O00238 14-502): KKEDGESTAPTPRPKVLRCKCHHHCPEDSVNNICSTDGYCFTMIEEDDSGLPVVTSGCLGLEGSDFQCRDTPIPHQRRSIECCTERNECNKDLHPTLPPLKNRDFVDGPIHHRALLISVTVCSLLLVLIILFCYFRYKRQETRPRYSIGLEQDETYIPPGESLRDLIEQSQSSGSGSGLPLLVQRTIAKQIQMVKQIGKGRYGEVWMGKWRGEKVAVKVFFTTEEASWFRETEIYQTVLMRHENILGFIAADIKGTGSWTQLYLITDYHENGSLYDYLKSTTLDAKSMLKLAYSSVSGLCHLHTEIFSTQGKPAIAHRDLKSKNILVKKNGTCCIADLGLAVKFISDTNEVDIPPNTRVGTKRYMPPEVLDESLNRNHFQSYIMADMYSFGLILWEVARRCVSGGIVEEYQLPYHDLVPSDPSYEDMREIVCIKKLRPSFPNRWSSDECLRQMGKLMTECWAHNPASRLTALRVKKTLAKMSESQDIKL

For the compound `CC(O)c1cccc(-c2cnn3cc(-c4ccc(CN5CCCC5)cc4)cnc23)c1` (centres unmarked) [Compound 165, 1-(3-(6-(4-(pyrrolidin-1-ylmethyl)phenyl)pyrazolo[1,5-a]pyrimidin-3-yl)phenyl)ethanol], the IC50 against ALK1 was found to be 32 nM; on ALK4 it was 1300 nM; on ALK6, 3100 nM; at ALK2 [1] (HTRF assay, BMP6 as agonist, C2C12 cells, read-out: BMP6 HTRF), 240 nM; against ALK2 [2], 3 nM; at ALK3, 140 nM. The same compound displayed an IC50 at ALK5 of 5900 nM.
Turning to `NS(=O)(=O)c1ccc(-c2cnn3cc(-c4ccc(C5(O)CCNCC5)nc4)cnc23)c2ccccc12` [Compound 56, 4-(6-(6-(4-hydroxypiperidin-4-yl)pyridin-3-yl)pyrazolo[1,5-a]pyrimidin-3-yl)naphthalene-1-sulfonamide], the IC50 against ALK1 was 900 nM; against ALK4, greater than 10000 nM; on ALK6, greater than 10000 nM; on ALK2 [1] (setting [3]), 60000 nM; against ALK2 [2], 350 nM; against ALK3, greater than 10000 nM. In addition, at ALK5, the IC50 is greater than 10000 nM.
For `CS(=O)(=O)c1cccc(-c2cnn3cc(-c4ccc(C(F)(F)CN5CCCC5)cc4)cnc23)c1` [Compound 119, 6-(4-(1,1-difluoro-2-(pyrrolidin-1-yl)ethyl)phenyl)-3-(3-(methylsulfonyl)phenyl)pyrazolo[1,5-a]pyrimidine], the IC50 was 530 nM on ALK1; greater than 10000 nM against ALK4; greater than 10000 nM at ALK6; 1040 nM on ALK2 [1] (setting [3]); 210 nM at ALK2 [2]; greater than 10000 nM on ALK3. In addition, the IC50 on ALK5 is greater than 10000 nM.
For the compound `CCS(=O)(=O)c1cccc(-c2cnn3cc(-c4ccc(CCN5CCCCC5)cc4)cnc23)c1` [Compound 106, 3-(3-(ethylsulfonyl)phenyl)-6-(4-(2-(piperidin-1-yl)ethyl)phenyl)pyrazolo[1,5-a]pyrimidine], the IC50 is 220 nM at ALK1; greater than 10000 nM on ALK4; greater than 10000 nM against ALK6; 2.2 nM on ALK2 [1] (setting [3]); 66 nM against ALK2 [2]; 2200 nM against ALK3. The compound also showed an IC50 on ALK5 greater than 10000 nM.
For `C[C@@H]1CNC[C@H](C)N1c1ccc(-c2cnc3c(-c4ccc([S+](N)(=O)[O-])c(C(F)(F)F)c4)cnn3c2)cc1` [Compound 53, 4-(6-(4-((2R,6S)-2,6-dimethylpiperazin-1-yl)phenyl)pyrazolo[1,5-a]pyrimidin-3-yl)-2-(trifluoromethyl)benzenesulfonamide], the IC50 against ALK1 was 2900 nM; at ALK4, greater than 10000 nM; on ALK6 it was greater than 10000 nM; on ALK2 [1] (setting [3]) it was 316 nM; against ALK2 [2], 380 nM; at ALK3, greater than 10000 nM. This compound also registered an IC50 against ALK5 greater than 10000 nM.
For `NS(=O)(=O)c1ccc(-c2cnn3cc(-c4ccc(C5(O)CCNCC5)cc4)cnc23)c2ccccc12` [Compound 66, 4-(6-(4-(4-hydroxypiperidin-4-yl)phenyl)pyrazolo[1,5-a]pyrimidin-3-yl)naphthalene-1-sulfonamide], the IC50 was 180 nM on ALK1; greater than 10000 nM against ALK4; greater than 10000 nM at ALK6; 10000 nM on ALK2 [1] (setting [3]); 68 nM on ALK2 [2]; greater than 10000 nM on ALK3. This compound gave an IC50 against ALK5 greater than 10000 nM.
In the case of `O=[S+]([O-])(c1cccc(-c2cnn3cc(-c4ccc(C5CCNCC5)cc4)cnc23)c1)C1CC1` [Compound 110, 3-(3-(cyclopropylsulfonyl)phenyl)-6-(4-(piperidin-4-yl)phenyl)pyrazolo[1,5-a]pyrimidine], the IC50 was 480 nM at ALK1; greater than 10000 nM on ALK4; greater than 10000 nM on ALK6; 710 nM at ALK2 [1] (setting [3]); 50 nM on ALK2 [2]; 3900 nM against ALK3. For the same compound, the IC50 against ALK5 is greater than 10000 nM.
For the compound `C[C@@H]1CNC[C@H](C)N1c1ccc(-c2cnc3c(-c4ccc(N)c5ccccc45)cnn3c2)cc1` [Compound 59, 4-(6-(4-((2R,6S)-2,6-dimethylpiperazin-1-yl)phenyl)pyrazolo[1,5-a]pyrimidin-3-yl)naphthalen-1-amine], the IC50 against ALK1 was determined as 140 nM; against ALK4 it was 4100 nM; on ALK6, 2500 nM; at ALK2 [1] (setting [3]), 284 nM; on ALK2 [2], 43 nM; on ALK3 it was 900 nM. This compound also returned an IC50 on ALK5 greater than 10000 nM.
On to `C[C@@H]1CNC[C@H](C)N1c1ccc(-c2cnc3c(-c4cccc(CS(N)(=O)=O)c4)cnn3c2)cc1` [Compound 73, (3-(6-(4-((2R,6S)-2,6-dimethylpiperazin-1-yl)phenyl)pyrazolo[1,5-a]pyrimidin-3-yl)phenyl)methanesulfonamide], for which the IC50 on ALK1 is 160 nM; on ALK4, 6400 nM; at ALK6 it was greater than 10000 nM; on ALK2 [1] (setting [3]), 750 nM; on ALK2 [2] it was 37 nM; against ALK3, 1400 nM. Moreover, the IC50 against ALK5 is greater than 10000 nM.
For `C[C@@H]1CNC[C@H](C)N1c1ccc(-c2cnc3c(-c4cc(N)cc5ccccc45)cnn3c2)cc1` [Compound 58, 4-(6-(4-((2R,6S)-2,6-dimethylpiperazin-1-yl)phenyl)pyrazolo[1,5-a]pyrimidin-3-yl)naphthalen-2-amine], the IC50 was 73 nM against ALK1; 6100 nM at ALK4; 950 nM against ALK6; 90 nM on ALK2 [1] (setting [3]); 36 nM at ALK2 [2]; 370 nM against ALK3. For the same compound, the IC50 at ALK5 was greater than 10000 nM.
For `CN1CCN(c2ccc(-c3cnc4c(-c5ccc(S(N)(=O)=O)c6ccccc56)cnn4c3)cn2)CC1` [Compound 48, 4-(6-(6-(4-methylpiperazin-1-yl)pyridin-3-yl)pyrazolo[1,5-a]pyrimidin-3-yl)naphthalene-1-sulfonamide], the IC50 against ALK1 is 3900 nM; against ALK4, greater than 10000 nM; at ALK6, greater than 10000 nM; on ALK2 [1] (setting [3]), 12000 nM; on ALK2 [2] it was 560 nM; against ALK3, greater than 10000 nM. For the same compound, the IC50 on ALK5 is greater than 10000 nM.
